Experimental data as given in paper PMC7250896, “Inhibition of mitochondrial complex I by the novel compound FSL0260 enhances high salinity-stress tolerance in Arabidopsis thaliana” (Scientific Reports, 2020).

Tested on: T1, mitochondrial complex I
T1 construct: native multi-subunit complex in sonicated mitochondria isolated from potato tuber; with Gamma-CA (complex I subunit detected in the pull-down)
Assay: deamino-NADH oxidation ([…] nm) in sonicated mitochondria; OCR; pull-down with FSL0260-fixed agarose beads
Assay type: biochemical, Solanum tuberosum

For `Cc1ccc(S(=O)(=O)OCC2Oc3ccccc3C=C2C[n+]2ccccc2)cc1` (stereo not shown) [FSL0260], the IC50 was 45.1 µM.
